Structures can show the parent of a compound that is named as a salt. Where two headings read alike, the source gives them in different places.
Experiments:
[1] = Storage stability of the powder at room temperature; type: physicochemical; conditions: stored at room temperature for a long period of time
From the text: This compound is a powdery material having a yellowish color immediately after the production thereof. It gradually changes its color into brown. […] This is because a decomposition product, which is difficultly soluble in water, has been formed during the storage of the compound. So, it is not considered that the compound has properties suitable for formulating into a phamaceutical preparation.
2,3-(methylenedioxy)-5-methyl-7-hydroxy-8-ethoxy-benzo[c]phenanthridinium hydrogen sulfate (compound A-0), wherein the acid residue X^- is a hydrogen sulfate ion HSO4^-, is a compound according to the invention, and can be obtained as yellow powder. […] A 0.5 µM aqueous solution of 2,3-(methylenedioxy)-5-ethyl-7-hydroxy-8-methoxy-benzo[c]phenanthridinium chloride, wherein the acid residue X^- is a chloride ion Cl^-, has a pH of 4.3. On the other hand, a 0.5 µM aqueous solution of 2,3-(methylenedioxy)-5-methyl-7-hydroxy-8-methoxy-benzo[c]phenanthridinium hydrogen sulfate according to the invention, wherein the acid residue X^- is a hydrogen sulfate ion HSO4^-, has a pH of 3.9. […] There are no disadvantages in the pharmaceutical activities of such compounds when they have the form of hydrogen salts such as hydrogen sulfate salts. Therefore, the hydrogen salt compounds are practically useful as medicines in view of the enhanced stability thereof.

[2] = tested on: HeLa S3; assay: Growth inhibition activity against tumor cells (Methylene Blue staining); type: cell-based; conditions: Homo sapiens
Procedure: (§1) Various tumor cells were cultured at 37°C for 24 hours in 5% gaseous carbon dioxide, and then subjected to an action of a test drug for 2-4 days. After that, the cells were stained with 0.05% Methylene Blue. The pigment were extracted from the stained cells. The growth inhibition rate of the cells was determined based on absorbance of the extracted pigment at 660 nm, and the 50% growth inhibitory concentration (IC50) was calculated.
(§2) In this table, the abbreviated expressions have the following tumor cells: HeLa S3 = carcinoma colli; MMI = ovarian cancer; SHIN-3 = ovarian cancer; N-231 = small cell lung cancer; Lu-130 = small cell lung cancer; Nakajima = gastric cancer; and the expression "n.t." represents "not tested". These tests were conducted according to a simultaneous comparison test method, except the case of HeLa S3.

[3] = tested on: Lu-130; assay: as above; type: cell-based
Procedure: as §1, §2

[4] = tested on: MMI; assay: as above; type: cell-based
Procedure: as §1, §2

[5] = tested on: N-231; assay: as above; type: cell-based
Procedure: as §1, §2

[6] = tested on: SHIN-3; assay: as above; type: cell-based
Procedure: as §1, §2

[7] = tested on: Nakajima; assay: as above; type: cell-based; conditions: Nakajima = gastric cancer; test drug for 2-4 days
Procedure: as §1, §2

[8] = tested on: platelet aggregation caused by platelet activation factor (PAF) in platelet-rich plasma (PRP); assay: Inhibition activity on platelet aggregation (serotonin release, anti-PAF activity); type: cell-based, Japanese albino rabbits; conditions: Oryctolagus cuniculus, PAF 10^-7 M, serotonin release inhibition rate; for inhibition at 25 µg/mL: Concentration 25 µg/ml; for inhibition at 50 µg/mL: Concentration 50 µg/ml; for inhibition at 100 µg/mL: Concentration 100 µg/ml
Procedure: Platelet-rich plasma (PRP) was collected from Japanese albino rabbits (weighing 3-4 kg). As a platelet aggregation inducer, platelet activation factor (PAF) was used in a final concentration of 10^-7 M. A test drug was added to PRP. After incubation for a definite period of time, PAF was added to cause a platelet aggregation reaction. The reaction was terminated with EDTA. After a centrifugation, the supernatant was removed to obtain platelet precipitates. Distilled water was added to the platelet precipitates, whereby the serotonin remained in the platelet was reacted with an orthophthalaldehyde reagent to form a serotonin-orthophthaladehyde condensate. The condensate was measured at an excited wavelength of 360 nm and at a measurement wavelength of 475 nm. Anti-PAF activity of the test drug was determined by the following equation. Serotonin release inhibition rate (%) =((Test drug + PAF) value - PAF value)/(Blank value - PAF value)x 100 [formula] In the equation, the expression "value" stands for "serotonin value".

[9] = Lu-130 = small cell lung cancer, test drug for 2-4 days, read-out: IC50
[10] = MMI = ovarian cancer, test drug for 2-4 days, read-out: IC50
[11] = N-231 = small cell lung cancer, test drug for 2-4 days, read-out: IC50
[12] = SHIN-3 = ovarian cancer, test drug for 2-4 days, read-out: IC50

Compound	IC50 ([2]; HeLa S3) [µg/mL]	IC50 [3] [µg/mL]	IC50 [4] [µg/mL]	IC50 [5] [µg/mL]	IC50 [6] [µg/mL]	IC50 [3, 9] [µg/mL]	IC50 [4, 10] [µg/mL]	IC50 [5, 11] [µg/mL]	IC50 [7] [µg/mL]	IC50 [6, 12] [µg/mL]	inhibition at 25 µg/mL [8] [%]	inhibition at 50 µg/mL [8] [%]	inhibition at 100 µg/mL [8] [%]	other results
COc1ccc2c(c[n+](C)c3c4cc5c(cc4ccc23)OCO5)c1O [2,3-(methylenedioxy)-5-methyl-7-hydroxy-8-methoxy-benzo[c]phenanthridinium chloride]														stability on storage [1]: gradually decomposed
COc1ccc2c(c[n+](C)c3c4cc5c(cc4ccc23)OCO5)c1O [Compound A-0, 2,3-(methylenedioxy)-5-methyl-7-hydroxy-8-methoxy-benzo[c]phenanthridinium hydrogen sulfate salt]	0.15	0.055	0.12	0.036	0.192									
CC[n+]1cc2c(O)c(OC)ccc2c2ccc3cc4c(cc3c21)OCO4 [Compound A-1, 2,3-(methylenedioxy)-5-ethyl-7-hydroxy-8-methoxy-benzo[c]phenanthridinium hydrogen sulfate salt]						0.25	0.165	0.04	0.426	0.17	49.6	74.1	96.5	IC50 ([2]; HeLa S3 = carcinoma colli, test drug for 2-4 days, not part of the simultaneous comparison test, read-out: IC50): 0.177 µg/mL; inhibition at 12.5 µg/mL ([8]; Concentration 12.5 µg/ml): 25.2%
CCC[n+]1cc2c(O)c(OC)ccc2c2ccc3cc4c(cc3c21)OCO4 [Compound A-2, 2,3-(methylenedioxy)-5-(n-propyl)-7-hydroxy-8-methoxy-benzo[c]phenanthridinium hydrogen sulfate salt]						0.108	0.273	0.085	0.777	0.414				
CC[n+]1cc2c(O)c(OC)ccc2c2ccc3ccccc3c21.O=S(=O)([O-])O [Compound A-3, 5-ethyl-7-hydroxy-8-methoxy-benzo[c]phenanthridinium hydrogen sulfate salt]	0.69													
COc1ccc2c(c[n+](C)c3c4ccccc4ccc23)c1O.O=S(=O)([O-])O [Compound A-4, 5-methyl-7-hydroxy-8-methoxy-benzo[c]phenanthridinium hydrogen sulfate salt]	0.26	0.051	0.262	0.062	0.155						10.9	26.5	46.4	

Reference: patent publication EP0487930B1, “Benzo[C]phenanthridinium derivatives” (NIPPON KAYAKU KABUSHIKI KAISHA, priority 1990, dated 1992)
